Columns and labels:
[1] = tested on: P388 = murine lymphoma cells; assay: Cytotoxicity against P388 cells; type: cell-based
DNA polymerase = assay: Enzyme inhibition: DNA polymerase inhibition; type: biochemical
[2] = tested on: CV-1 = monkey kidney cells; assay: Cytotoxicity against CV-1 cells; type: cell-based
[3] = tested on: HT29 = human colon carcinoma; assay: Cytotoxicity against HT29 cells; type: cell-based
[4] = tested on: P388 murine leukemia, B16 melanoma, Lewis lung carcinoma, and several human tumor xenograft models in mice; conditions: human tumor xenografts in mice; cited from earlier work
MEL28 = human melanoma = assay: Cytotoxicity against MEL28 cells; type: cell-based
B16 melanoma = conditions: evaluated by the NCI; cited from earlier work
RNA synthesis = assay: Antimetabolism: RNA synthesis inhibition; type: cell-based
RNA polymerase = assay: Enzyme inhibition: RNA polymerase inhibition; type: biochemical
Bacillus subtilis = assay: Antimicrobial activity against Bacillus subtilis (MIC, disc); type: cell-based; conditions: Bacillus subtilis
[5] = tested on: L1210 = murine lymphoma cells; assay: Cytotoxicity against L1210 cells; type: cell-based
[6] = tested on: A549 = human lung carcinoma; assay: Cytotoxicity against A549 cells; type: cell-based
protein synthesis = assay: Antimetabolism: protein synthesis inhibition; type: cell-based
DNA synthesis = assay: Antimetabolism: DNA synthesis inhibition; type: cell-based

COc1cc2c(cc1O)CCN[C@]21CS[C@@H]2c3c(OC(C)=O)c(C)c4c(c3[C@H](COC1=O)N1[C@@H]2[C@@H]2N[C@@H](Cc3cc(C)c(OC)c(O)c32)[C@@H]1O)OCO4 [Et 729]
P388 IC50 [1]: 0.2 ng/mL | DNAp (DNA polymerase inhibition) IC50 (DNA polymerase): 1500 ng/mL | CV-1 IC50 [2]: 2.5 ng/mL | HT29 IC50 [3]: 0.5 ng/mL | efficacy in vivo [4]: promising efficacy in vivo | MEL28 IC50 (MEL28 = human melanoma): 5.0 ng/mL | survivors 60 days following infection with B16 melanoma (B16 melanoma): 8 of 10 | RNA (RNA synthesis inhibition) IC50 (RNA synthesis): 20 ng/mL | RNAp (RNA polymerase inhibition) IC50 (RNA polymerase): 50 ng/mL | B.s. MIC (Bacillus subtilis): 0.08 μg/disc | L1210 IC50 [5]: <1 ng/mL | A549 IC50 [6]: 0.2 ng/mL | Prot. (protein synthesis inhibition) IC50 (protein synthesis): >1000 ng/mL | DNA (DNA synthesis inhibition) IC50 (DNA synthesis): 200 ng/mL
